# Marks after values point to notes of the source that are not given here.
# Key:
# Type in all cases: physicochemical
# [1] = Solubility of lyophilized and crystalline solids; details: for pH of Solution Lyo. / Conc. of CPD A mg/ml Lyo.: lyophilized solid
# [2] = 10x dilution of soluble forms with standard IV solutions (pH, precipitate); details: for Solution 1 ppt 24 hr / Solution 3 ppt 24 hr / Solution 2 ppt 24 hr / Solution 4 ppt 24 hr: precipitate at 24 hr; for Concen. of Cpd A: undiluted solution used for the 10x dilutions; for Solution 1 ppt 4 hr / Solution 3 ppt 4 hr / Solution 2 ppt 4 hr / Solution 4 ppt 4 hr: precipitate at 4 hr
# Procedure: (§1) The amount of Compound A or Compound B calculated for selected concentrations was weighed into volumetric flasks. Equimolar quantities of combining acid, amino acid, or base were added either as solutions or in dry form. Deionized water was added to bring the volume to that desired for the preselected concentrations.. All flasks were sonicated for 15 minutes, allowed to stand at room temperature for 30 minutes, then filtered through a fine frit sintered glass funnel. After the pH of the filtrate was taken, suitable dilutions were made into 0.1N HCl for ultraviolet spectrophotometric assay of concentration. Ten fold dilutions of the original filtrates were made into standard I.V. solutions.
# [3] = Solubility screening procedure (concentration and pH of filtrate); details: for Conc. of CPD A: compound A + equimolar acid; for Conc. of CPD A / Conc. of CPD B: amino acid or base in deionized water, room temperature, filtrate, UV assay; for pH of Solution: pH of the filtrate; for Conc. of CPD B: compound B + equimolar acid
# Procedure: as §1
# [4] = Cpd A salt solution diluted 10x with 0.9% NaCl
# [5] = Cpd A salt solution diluted 10x with 5% Dextrose
# [6] = Cpd A salt solution diluted 10x with 5% Dextrose + 0.9% NaCl
# [7] = Cpd A salt solution diluted 10x with Lactated Ringer's Solution
# [8] = concentrated Cpd B solution (154-221 mg/ml) diluted 10x with 5% Dextrose
# [9] = concentrated Cpd B solution (154-221 mg/ml) diluted 10x with 5% Dextrose + 0.9% NaCl
# [10] = concentrated Cpd B solution (154-221 mg/ml) diluted 10x with Lactated Ringer's Solution
# [11] = concentrated Cpd B solution (155-221 mg/ml) diluted 10x with 0.9% NaCl
# [12] = concentrated Cpd B solution diluted 10x with 5% Dextrose + 0.9% NaCl
# [13] = concentrated Cpd B solution diluted 10x with 5% Dextrose
# [14] = concentrated Cpd B solution diluted 10x with Lactated Ringer's Solution
# [15] = undiluted concentrated Cpd B solution used for the Solution 1 dilution
# [16] = undiluted concentrated solution (at least 155 mg/ml) used for the Solution 1 dilution (for most salts for all four solutions)
# [17] = low-concentration Cpd B solution (26.2-52 mg/ml) diluted 10x with 0.9% NaCl
# [18] = separate undiluted concentrated Cpd B solution used for Solutions 2-4 only
# [19] = separate undiluted concentrated solution used for Solutions 2-4 only
# [20] = undiluted low-concentration Cpd B solution (26.2-52 mg/ml)
# [21] = undiluted low-concentration solution (26.2-52 mg/ml), diluted with Solution 1 only
Structure (SMILES),"pH of Solution Cryst. ([1]; CPD A salt, crystalline solid)",pH of Solution Lyo. ([1]; CPD A salt),Conc. of CPD A mg/ml Lyo. ([1]; not necessarily maximum value) [mg/mL],"Solution 1 pH dil [2, 4]","Solution 1 ppt 24 hr [2, 4]","Solution 2 pH dil [2, 5]","Solution 3 pH dil [2, 6]","Solution 2 pH dil [2, 8]","Solution 3 pH dil [2, 9]","Solution 4 pH dil [2, 10]","Solution 1 pH dil [2, 11]","Solution 1 ppt 4 hr [2, 11]","Solution 1 ppt 24 hr [2, 11]","Solution 3 ppt 24 hr [2, 12]","Solution 2 ppt 24 hr [2, 13]","Solution 4 ppt 24 hr [2, 14]","pH of Solut. [2, 15]","Concen. of Cpd B [2, 16] [µg/mL]",Conc. of CPD B [3] [µg/mL],pH of Solution ([3]; CPD B solutions),further results
CCn1cc(C(=O)O)c(=O)c2cc(F)c(N3CCNCC3)cc21 [A D-Galacturonic],4.9,4.0,256,5.36,no,5.18,5.20,–,–,–,–,–,–,–,–,–,–,–,–,–,"solubility ([1]; crystalline solid, not necessarily maximum value, read-out: Conc. of CPD A mg/ml Cryst.): 183 mg/mL; Solution 3 ppt 24 hr [2, 6]: no; Solution 2 ppt 24 hr [2, 5]: slight; Solution 4 pH dil [2, 7]: 5.36; Solution 4 ppt 24 hr [2, 7]: no; pH of Solut. ([2]; undiluted Cpd A solution): 5.44; Concen. of Cpd A [2]: 166000 µg/mL"
CCn1cc(C(=O)O)c(=O)c2cc(F)c(N3CCNCC3)cc21 [A D-Gluconic],4.83,5.1,255,4.4,no,4.3,4.4,–,–,–,–,–,–,–,–,–,–,–,–,–,"Solution 3 ppt 24 hr [2, 6]: no; Solution 2 ppt 24 hr [2, 5]: no; Solution 4 pH dil [2, 7]: 4.7; Solution 4 ppt 24 hr [2, 7]: no; pH of Solut. ([2]; undiluted Cpd A solution): 4.30; Concen. of Cpd A [2]: 182000 µg/mL"
CCn1cc(C(=O)O)c(=O)c2cc(F)c(N3CCNCC3)cc21 [A L-Aspartic],4.8,4.5,256,5.05,no,4.83,4.84,–,–,–,–,–,–,–,–,–,–,–,–,–,"Conc. of CPD A [3]: 174000 µg/mL; pH of Solution ([3]; CPD A solutions): 4.88; Solution 3 ppt 24 hr [2, 6]: no; Solution 2 ppt 24 hr [2, 5]: slight; Solution 4 pH dil [2, 7]: 5.02; Solution 4 ppt 24 hr [2, 7]: no; pH of Solut. ([2]; undiluted Cpd A solution): 4.88; Concen. of Cpd A [2]: 174000 µg/mL"
CCn1cc(C(=O)O)c(=O)c2cc(F)c(N3CCNCC3)cc21 [A L-Glutamic],5.5,5.2,254,5.18,no,5.05,5.05,–,–,–,–,–,–,–,–,–,–,–,–,–,"Conc. of CPD A [3]: 174000 µg/mL; pH of Solution ([3]; CPD A solutions): 5.08; Solution 3 ppt 24 hr [2, 6]: no; Solution 2 ppt 24 hr [2, 5]: no; Solution 4 pH dil [2, 7]: 5.15; Solution 4 ppt 24 hr [2, 7]: no; pH of Solut. ([2]; undiluted Cpd A solution): 5.08; Concen. of Cpd A [2]: 174000 µg/mL"
CCn1cc(C(=O)O)c(=O)c2cc(F)c(N3CCNCC3)cc21 [A Lactic],5.15,4.6,256,4.3,no,4.8,4.2,–,–,–,–,–,–,–,–,–,–,–,–,–,"Conc. of CPD A [3]: 198000 µg/mL; pH of Solution ([3]; CPD A solutions): 4.05; Solution 3 ppt 24 hr [2, 6]: no; Solution 2 ppt 24 hr [2, 5]: no; Solution 4 pH dil [2, 7]: 4.5; Solution 4 ppt 24 hr [2, 7]: no; pH of Solut. ([2]; undiluted Cpd A solution): 4.17; Concen. of Cpd A [2]: 193000 µg/mL"
CCn1cc(C(=O)O)c(=O)c2cc(F)c(N3CCNCC3)nc21 [B D-Gluconic],–,–,–,–,–,–,–,4.5,4.8,4.6,4.6,no,yes,yes,no,no,4.6,168000,–,–,"pH of Solution Cryst. ([1]; CPD B salt, crystalline solid): 4.78; pH of Solution Lyo. ([1]; CPD B salt): 4.8; Solution 3 ppt 4 hr [2, 12]: no"
CCn1cc(C(=O)O)c(=O)c2cc(F)c(N3CCNCC3)nc21 [B Hydrochloric],–,–,–,–,–,–,–,–,–,–,–,–,–,–,–,–,–,–,7000,1.83^c,"pH of Solution Cryst. ([1]; CPD B salt, crystalline solid): 3"
CCn1cc(C(=O)O)c(=O)c2cc(F)c(N3CCNCC3)nc21 [B Isethionic],–,–,–,–,–,–,–,2.35,2.14,3.95,2.08,no,yes,yes,no,slight,1.01,220000,220000,1.01,"pH of Solution Cryst. ([1]; CPD B salt, crystalline solid): 2.84; pH of Solution Lyo. ([1]; CPD B salt): 1.4; Solution 1 pH dil [2, 17]: 3.05; Solution 1 ppt 24 hr [2, 17]: no; pH of Solut. [2, 18]: 1.40; Concen. of Cpd B [2, 19]: 196000 µg/mL; pH of Solut. [2, 20]: 2.16; Concen. of Cpd B [2, 21]: 48800 µg/mL"
CCn1cc(C(=O)O)c(=O)c2cc(F)c(N3CCNCC3)nc21 [B L-Aspartic],–,–,–,–,–,–,–,4.83,4.71,4.94,4.82,no,yes,yes,no,no,4.64,165000,165000,4.64,"pH of Solution Cryst. ([1]; CPD B salt, crystalline solid): 4.80; pH of Solution Lyo. ([1]; CPD B salt): 4.65; Solution 1 pH dil [2, 17]: 5.54; Solution 1 ppt 24 hr [2, 17]: no; pH of Solut. [2, 18]: 4.60; Concen. of Cpd B [2, 19]: 190000 µg/mL; pH of Solut. [2, 20]: 4.48; Concen. of Cpd B [2, 21]: 49800 µg/mL"
CCn1cc(C(=O)O)c(=O)c2cc(F)c(N3CCNCC3)nc21 [B L-Cysteic],–,–,–,–,–,–,–,2.9,2.8,3.9,2.8,yes,yes,yes,hazy,yes,2.78,221000,221000,2.78,"Solution 3 ppt 4 hr [2, 12]: yes; Solution 2 ppt 4 hr [2, 13]: hazy; Solution 4 ppt 4 hr [2, 14]: yes; Solution 1 pH dil [2, 17]: 3.29; Solution 1 ppt 24 hr [2, 17]: no; pH of Solut. [2, 20]: 2.96; Concen. of Cpd B [2, 21]: 52000 µg/mL"
CCn1cc(C(=O)O)c(=O)c2cc(F)c(N3CCNCC3)nc21 [B L-Glutamic],–,–,–,–,–,–,–,5.06,4.95,5.09,5.10,no,yes,slight,slight,slight,4.98,160000,160000,4.98,"pH of Solution Cryst. ([1]; CPD B salt, crystalline solid): 4.84; pH of Solution Lyo. ([1]; CPD B salt): 4.8; Solution 2 ppt 4 hr [2, 13]: slight; Solution 1 pH dil [2, 17]: 4.99; Solution 1 ppt 24 hr [2, 17]: no; pH of Solut. [2, 18]: 5.20; Concen. of Cpd B [2, 19]: 154000 µg/mL; pH of Solut. [2, 20]: 4.95; Concen. of Cpd B [2, 21]: 48200 µg/mL"
CCn1cc(C(=O)O)c(=O)c2cc(F)c(N3CCNCC3)nc21 [B Lactic],–,–,–,–,–,–,–,4.2,4.1,4.3,4.1,yes,yes,yes,hazy,yes,4.04,221000,217000,4.24^b,"Solution 3 ppt 4 hr [2, 12]: yes; Solution 2 ppt 4 hr [2, 13]: hazy; Solution 4 ppt 4 hr [2, 14]: yes"

# Reference: patent publication EP0067666A1, “Salts of antimicrobial naphthyridine and quinoline compounds and their production” (priority 1981, dated 1982)
